Results published in publication doi:10.1101/2025.08.06.668955, “High-Affinity, Structure-Validated and Selective Macrocyclic Peptide Tools for Chemical Biology Studies of Huntingtin” (bioRxiv, 2025).
Where a SMILES comes first, the peptide text is derived from it. Bridges are numbered along the chain shown (N, C = ends).

Tests used:
HAP40 = assay: Macrocycle precipitation (MP), co-purification of HAP40, LC-MS/MS; type: binding, human; settings: HEK293T lysate versus HTT CRISPR knockout line
Excerpt: To assess macrocycle selectivity and identify potential HTT interacting proteins, we performed LC-MS/MS analysis of the proteins in the MP eluates. To control for non-specific binding, we performed MPs using lysates from a HTT CRISPR knockout cell line ([Jung et al., 2021]). Across all macrocycles, HTT emerged as the most enriched protein after background subtraction (Figure 5b). Given we performed affinity purification using macrocycles targeting distinct HTT surfaces, we hypothesized that any real HTT protein binder might be co-purified with two or more macrocycles. […] In contrast, HAP40 was not enriched by HL5, consistent with its specificity for apo HTT.
Macrocycles were pre-conjugated to streptavidin beads (Cytiva, 17-5113-01) by incubating with a 30 μL slurry of beads per macrocycle purification (MP) in Lysis Buffer (10 mM Tris-HCl, pH 7.9, 150 mM NaCl, 0.1% NP-40, 1:500 protease inhibitor cocktail (Sigma-Aldrich), 1:1,000 benzonase nuclease, and 2 mM MgCl2) for 1 hour at 4°C. A concentration of 1.25 μM macrocycle was used for conjugation. After incubation, beads were washed three times with 500 μL Lysis Buffer to remove unbound macrocycles and resuspended in 500 μL of lysate at 4 mg/mL protein concentration.
Cells were harvested by centrifugation at 1,500 rpm for 5 minutes, washed twice with PBS, and snap-frozen. Cell pellets were then resuspended in 500 μL of Lysis Buffer (as described above) and incubated on an end-over-end rotator at 4°C for 1 hour. Lysates were clarified by centrifugation at 20,000g for 15 minutes at 4°C, and the supernatant was transferred to fresh 1.5 mL Eppendorf tubes. Protein concentration was determined by BCA assay (Thermo Fisher Scientific, 23225), yielding approximately 4 mg of protein on average. Lysates were diluted to a final concentration of 4 mg/mL for use, providing […] of total protein per MP.
Macrocycle-conjugated beads were incubated with 2 mg of lysate in Lysis Buffer for 1 hour at 4°C with rotation. After incubation, beads were collected by centrifugation at 3,000 rpm, and the flow-through was saved for analysis. Beads were then washed sequentially with 1 mL of Wash Buffer 1 (10 mM Tris-HCl, pH 7.9, 100 mM NaCl, 0.1% NP-40) and twice with Wash Buffer 2 (Wash Buffer 1 without detergent). Lastly, bound proteins were eluted from the beads with 200 μL of 0.5 M NH4OH and flash-frozen in liquid nitrogen.
All sample preparation, LC MS/MS data collection, and MS data searches were carried out at the SPARC BioCentre at The Hospital for Sick Children (Toronto, ON, Canada). […] Samples were analyzed by liquid chromatography tandem mass spectrometry (LC-MS/MS) using an EASY-nanoLC 1200 system with a 1 h analysis and an Orbitrap Fusion™ Lumos™ Tribrid™ Mass Spectrometer (Thermo Fisher Scientific). […]

HTTQ23-HAP40 = target: T1, HTTQ23-HAP40 (Homo sapiens, UniProt P23610+P42858, INS38QQ); assay: Differential hydrogen-deuterium exchange mass spectrometry (ΔHDX-MS); type: binding; settings: 15 μM protein, 1:4 macrocycle, labeling 0.5, 5, 30 mins at 20 °C
T1 construct: Full-length wildtype HTT with a polyQ tract of 23 glutamines; FLAG; made in house; host or cells: Sf9 insect cells (baculovirus)
Experimental: Samples were labeled at 3 timepoints (0.5, 5, 30 mins) with 87% (v/v) deuteration buffer (10 mM Phosphate Buffer pD 7.5, 150 mM NaCl) at 20 °C. The HDX reaction was quenched at 50% (v/v) with 7.5 M Guanidine-HCl, 0.5 M TCEP, 100 mM Phosphate Buffer pH 2.5 at 0 °C for 2 min and subsequently diluted with an equal volume of quench dilution buffer (100 mM Phosphate Buffer, pH 2.5). The protein was digested using 1:1 Nepenthesin(II)-Pepsin (Affipro) followed by desalting (ACQUITY UPLC BEH C18 VanGuard Pre-column, Waters) and reverse-phase separation (ACQUITY UPLC BEH C18 Column, Waters). Liquid handling was achieved using the ACQUITY UPLC M-Class System with HDX Technology (Waters) and PAL3 Robotic Tool Change (LEAP, Trajan Scientific and Medical). The peptides were then analyzed using the Select Series Cyclic IMS mass spectrometer (Q-IMS-TOF, Waters). Peptide identification and HDX data analysis were achieved using ProteinLynx Global Server 3.0.3 (Waters) and DynamX 3.0 (Waters), respectively. Microsoft Excel and PyMOL 2.5 were used for visual presentation of HDX data. An AlphaFold 3 model was used to incorporate missing loops for depicting HTTQ23 and HTTQ23-HAP40. The peptide sequence coverage for HTT and HAP40 was 56.6–76.8% and 77.4–82%, respectively (Supplementary Figure 3–5). […]

T1 sequence (P42858 with tags, fused parts or gaps INS38QQ): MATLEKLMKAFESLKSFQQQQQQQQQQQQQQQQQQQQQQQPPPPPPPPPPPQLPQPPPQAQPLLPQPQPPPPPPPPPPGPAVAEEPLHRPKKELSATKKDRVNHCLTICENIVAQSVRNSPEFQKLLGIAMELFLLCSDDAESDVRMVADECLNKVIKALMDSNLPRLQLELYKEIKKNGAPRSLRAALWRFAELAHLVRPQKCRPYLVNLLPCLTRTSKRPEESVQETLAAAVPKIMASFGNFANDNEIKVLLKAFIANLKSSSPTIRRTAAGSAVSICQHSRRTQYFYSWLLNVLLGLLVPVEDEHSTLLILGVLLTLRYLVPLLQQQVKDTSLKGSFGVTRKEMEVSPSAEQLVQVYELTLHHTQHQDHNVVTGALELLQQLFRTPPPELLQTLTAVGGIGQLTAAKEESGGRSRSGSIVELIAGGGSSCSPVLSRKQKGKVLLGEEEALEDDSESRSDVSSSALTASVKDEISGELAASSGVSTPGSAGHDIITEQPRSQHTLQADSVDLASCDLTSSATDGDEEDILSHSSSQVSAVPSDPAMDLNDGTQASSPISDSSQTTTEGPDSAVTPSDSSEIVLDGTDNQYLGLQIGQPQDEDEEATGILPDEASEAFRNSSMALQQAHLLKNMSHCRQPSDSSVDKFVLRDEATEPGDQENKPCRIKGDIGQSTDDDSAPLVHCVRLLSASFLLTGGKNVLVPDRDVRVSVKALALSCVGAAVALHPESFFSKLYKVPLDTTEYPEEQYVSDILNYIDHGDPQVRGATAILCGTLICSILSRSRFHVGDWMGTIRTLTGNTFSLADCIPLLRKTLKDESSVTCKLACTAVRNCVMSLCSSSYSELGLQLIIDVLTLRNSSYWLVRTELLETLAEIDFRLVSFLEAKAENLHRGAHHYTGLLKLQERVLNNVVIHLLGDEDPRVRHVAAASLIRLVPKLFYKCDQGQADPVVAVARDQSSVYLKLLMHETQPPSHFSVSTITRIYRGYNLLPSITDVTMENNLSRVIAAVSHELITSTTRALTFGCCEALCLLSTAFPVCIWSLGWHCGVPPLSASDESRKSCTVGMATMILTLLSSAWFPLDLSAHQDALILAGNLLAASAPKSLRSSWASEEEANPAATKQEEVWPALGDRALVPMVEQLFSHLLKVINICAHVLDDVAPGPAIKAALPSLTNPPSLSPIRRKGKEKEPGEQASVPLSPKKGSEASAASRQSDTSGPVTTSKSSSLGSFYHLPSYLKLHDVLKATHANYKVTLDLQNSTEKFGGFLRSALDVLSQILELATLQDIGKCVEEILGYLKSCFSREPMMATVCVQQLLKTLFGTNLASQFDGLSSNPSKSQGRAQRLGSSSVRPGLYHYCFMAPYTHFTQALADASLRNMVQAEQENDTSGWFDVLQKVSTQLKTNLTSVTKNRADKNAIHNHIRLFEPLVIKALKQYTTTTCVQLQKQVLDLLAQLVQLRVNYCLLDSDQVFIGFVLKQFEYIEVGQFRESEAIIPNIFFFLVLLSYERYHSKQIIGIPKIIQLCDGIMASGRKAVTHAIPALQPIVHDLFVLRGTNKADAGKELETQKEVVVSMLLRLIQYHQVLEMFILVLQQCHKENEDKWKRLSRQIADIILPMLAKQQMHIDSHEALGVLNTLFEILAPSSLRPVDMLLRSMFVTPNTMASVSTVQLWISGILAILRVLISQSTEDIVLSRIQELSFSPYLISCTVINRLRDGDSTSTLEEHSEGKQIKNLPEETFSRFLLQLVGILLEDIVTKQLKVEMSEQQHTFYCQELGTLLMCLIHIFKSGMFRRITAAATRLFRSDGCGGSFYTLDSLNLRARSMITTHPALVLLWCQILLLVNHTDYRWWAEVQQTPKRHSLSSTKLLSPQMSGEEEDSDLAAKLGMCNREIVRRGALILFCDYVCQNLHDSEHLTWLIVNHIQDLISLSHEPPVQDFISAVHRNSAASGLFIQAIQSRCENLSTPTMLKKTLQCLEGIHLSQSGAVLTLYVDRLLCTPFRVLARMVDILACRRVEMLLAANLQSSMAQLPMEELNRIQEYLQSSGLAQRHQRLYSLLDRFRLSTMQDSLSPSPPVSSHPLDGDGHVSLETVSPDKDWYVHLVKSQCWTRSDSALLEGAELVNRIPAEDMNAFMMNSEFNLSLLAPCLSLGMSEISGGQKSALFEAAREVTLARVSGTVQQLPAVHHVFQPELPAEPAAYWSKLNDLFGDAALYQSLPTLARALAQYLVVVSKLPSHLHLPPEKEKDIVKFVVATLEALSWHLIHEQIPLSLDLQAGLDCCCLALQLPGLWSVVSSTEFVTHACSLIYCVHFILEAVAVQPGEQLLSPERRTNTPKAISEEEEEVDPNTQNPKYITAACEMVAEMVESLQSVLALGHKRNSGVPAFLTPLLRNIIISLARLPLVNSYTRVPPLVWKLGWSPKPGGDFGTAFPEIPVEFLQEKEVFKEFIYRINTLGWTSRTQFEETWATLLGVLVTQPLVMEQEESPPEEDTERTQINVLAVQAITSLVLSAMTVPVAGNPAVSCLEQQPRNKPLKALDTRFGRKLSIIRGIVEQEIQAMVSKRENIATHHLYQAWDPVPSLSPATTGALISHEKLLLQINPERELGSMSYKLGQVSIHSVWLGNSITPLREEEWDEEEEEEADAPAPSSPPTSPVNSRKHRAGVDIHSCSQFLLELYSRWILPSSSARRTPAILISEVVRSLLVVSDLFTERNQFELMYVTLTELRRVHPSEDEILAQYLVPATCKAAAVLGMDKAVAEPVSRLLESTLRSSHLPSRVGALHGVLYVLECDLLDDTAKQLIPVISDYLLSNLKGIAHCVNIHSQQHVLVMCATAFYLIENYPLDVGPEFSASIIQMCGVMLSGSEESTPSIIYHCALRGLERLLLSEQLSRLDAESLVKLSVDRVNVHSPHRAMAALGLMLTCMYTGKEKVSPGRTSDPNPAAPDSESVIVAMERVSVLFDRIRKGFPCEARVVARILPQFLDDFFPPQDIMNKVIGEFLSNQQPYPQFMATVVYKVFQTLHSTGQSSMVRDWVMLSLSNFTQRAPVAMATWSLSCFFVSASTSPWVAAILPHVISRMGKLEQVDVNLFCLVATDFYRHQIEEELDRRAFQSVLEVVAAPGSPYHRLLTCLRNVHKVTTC
T1 sequence (P23610 whole entry, stated change not applied): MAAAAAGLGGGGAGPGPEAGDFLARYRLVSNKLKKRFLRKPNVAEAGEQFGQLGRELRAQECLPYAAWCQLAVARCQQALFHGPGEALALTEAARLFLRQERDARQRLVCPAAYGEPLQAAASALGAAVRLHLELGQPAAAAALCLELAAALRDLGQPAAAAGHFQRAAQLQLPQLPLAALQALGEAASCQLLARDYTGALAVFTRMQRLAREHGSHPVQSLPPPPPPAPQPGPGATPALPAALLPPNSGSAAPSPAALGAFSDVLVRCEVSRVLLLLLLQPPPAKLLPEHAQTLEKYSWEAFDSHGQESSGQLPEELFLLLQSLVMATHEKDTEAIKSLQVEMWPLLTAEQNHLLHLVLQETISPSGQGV

**Q.** `CC[C@H](C)[C@@H]1NC(=O)[C@H](Cc2c[nH]c3ccccc23)NC(=O)[C@@H]2CCCN2C(=O)[C@H](C)NC(=O)[C@H](C(C)C)NC(=O)[C@H](CCC(N)=O)NC(=O)[C@H](Cc2ccccc2)NC(=O)[C@H](Cc2c[nH]cn2)NC(=O)[C@H]([C@@H](C)O)NC(=O)[C@H](Cc2ccc(O)cc2)NC(=O)CSC[C@@H](C(N)=O)NC(=O)[C@H](CC(C)C)NC(=O)[C@H](CO)NC(=O)[C@H](CCC(N)=O)NC1=O` [HL5] ({CH2CO}-YTHFQVAPWIQSLC-NH2; thioether N-14; C-terminus assumed) was tested. Which “Enrichment of HAP40 in macrocycle pulldowns” value (HAP40) did it give?
**A.** not enriched

**Q.** What about the “Cumulative ΔHDX of HTTQ23-HAP40 on incubation with macrocycle” value (HTTQ23-HAP40) of the same molecule?
**A.** no statistically significant cumulative HDX differences
